Results taken from patent publication US20100081661A1, “HEME OXYGENASE INHIBITORS, SCREENING METHODS FOR HEME OXYGENASE INHIBITORS AND METHODS OF USE OF HEME OXYGENASE INHIBITORS FOR ANTIMICROBIAL THERAPY” (UNIVERSITY OF MARYLAND, BALTIMORE, priority 2006, published 2010).
Where two headings read alike, the source gives them in different places.

How the values were obtained:
[1] = target: pa-HO (Pseudomonas aeruginosa, UniProt O69002); format: binding; settings: for NMR sat. transfer: Table 2, paHO; for NMR pa-HO: Table 3A; as to NMR pa-HO: key: Shows binding by NMR method = +; Ambig = ambiguous
[2] = test system: P. aeruginosa; experiment: MIC50 for P. aeruginosa; format: cell-based, Pseudomonas aeruginosa; settings: for minimum inhibition conc / MIC: Table 2; for MIC: read-out: minimum inhibition conc
[3] = target: nm-HO (Neisseria meningitidis, UniProt Q9AH50); format: cell-based; settings: Table 2; colour of cell pellet (white = no biliverdin, green = biliverdin) or toxicity to cells
[4] = Pseudomonas aeruginosa, Table 3B, P. aeruginosa, read-out: MIC 50
[5] = Pseudomonas aeruginosa, Table 3A, read-out: MIC 50

Chain of pa-HO (O69002 1-198): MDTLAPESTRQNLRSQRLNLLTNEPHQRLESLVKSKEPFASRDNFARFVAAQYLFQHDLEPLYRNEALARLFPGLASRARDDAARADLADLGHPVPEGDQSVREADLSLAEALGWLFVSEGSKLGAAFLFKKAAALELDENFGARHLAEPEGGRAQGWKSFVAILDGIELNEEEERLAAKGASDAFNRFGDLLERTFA
Chain of nm-HO (Q9AH50 1-209): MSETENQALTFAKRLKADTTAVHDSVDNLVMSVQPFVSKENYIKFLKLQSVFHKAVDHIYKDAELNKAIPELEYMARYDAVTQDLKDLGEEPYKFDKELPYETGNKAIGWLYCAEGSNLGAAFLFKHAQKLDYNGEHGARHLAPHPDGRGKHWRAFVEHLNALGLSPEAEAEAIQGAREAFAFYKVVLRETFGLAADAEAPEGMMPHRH

SMILES | NMR sat. transfer [1] | further results
O=C(O)c1ccc2c(c1)C(=O)N(c1ccc(Cl)cc1)C2=O [Compound 77] | Alias: CB-16 fluorescence binding: nd minimum inhibition conc: nd NMR sat. transfer: binds paHO | –
Cc1cc(-c2ccc(F)cc2)nc2cc(C(=O)O)nn12 [Compound 85] | yes, bind paHO | NMR pa-HO [1]: +; MIC50 [2, 4]: > 1000 µg/mL; minimum inhibition conc [2]: no antibacterial activity; MIC 50 (ug/ml) ([2]; Table 3A): no antibact activity
CCc1ccc2[nH]c3nc(N/N=C/c4ccc(O)cc4)nnc3c2c1 [Compound 139] | Alias: CB-27 fluorescence binding: nd minimum inhibition conc: nd NMR sat. transfer: does not bind paHO | –
O=C(O)c1cc(-c2cccnc2)nc2ccccc12 [Compound 62] | Alias: CB-23 fluorescence binding: nd minimum inhibition conc: nd NMR sat. transfer: does not bind paHO | –
Cc1nc(NCCCC(=O)O)c2ccccc2n1 [Compound 71] | Alias: Spec-6 fluorescence binding: nd minimum inhibition conc: nd NMR sat. transfer: do not bind paHO | –
COc1ccc(C(=O)COC(=O)/C=C/c2ccccc2)cc1 [Compound 74] | Alias: CB-1 fluorescence binding: nd minimum inhibition conc: nd NMR sat. transfer: do not bind paHO | –
Cc1ccccc1C(=O)Nc1cc(C(=O)O)cc(C(=O)O)c1 [Compound 6] | Alias: CB-17 fluorescence binding: nd minimum inhibition conc: nd NMR sat. transfer: binds paHO | –
O=C(O)c1c[nH]c2c(ccc3ccccc32)c1=O [Compound 52] | Alias: Spec-2 fluorescence binding: nd minimum inhibition conc: nd NMR sat. transfer: do not bind paHO | –
C=CCn1c(S)cc2sc3c(c2c1=O)CCN(C)C3 [Compound 128] | Alias: Spec-4 fluorescence binding: nd minimum inhibition conc: nd NMR sat. transfer: do not bind paHO | –
Cn1c(=N)n(CC(=O)O)c2ccccc21 [Compound 153] | Alias: CD-9 fluorescence binding: nd minimum inhibition conc: nd NMR sat. transfer: do not bind paHO | –
c1cncc(CNCc2cccnc2)c1 [Compound 64] | Alias: Spec-12 fluorescence binding: nd minimum inhibition conc: nd NMR sat. transfer: do not bind paHO | –
Nc1nnnn1/N=C/c1cc2c(cc1[N+](=O)[O-])OCO2 [Compound 143] | Alias: CB-19 fluorescence binding: nd minimum inhibition conc: nd NMR sat. transfer: binds paHO | –
O=C(O)c1ccc2c(c1)-c1nc3ccccc3n1C2=O [Compound 57] | Alias: CD-4 fluorescence binding: nd minimum inhibition conc: nd NMR sat. transfer: do not bind paHO | –
NCC(O)(c1ccc(Cl)cc1)c1ccc(Cl)cc1 [Compound 131] | yes, bind paHO | NMR pa-HO [1]: +; MIC ([2]; Pseudomonas aeruginosa): > 250 µg/mL; MIC50 [2, 5]: > 250 µg/mL; MIC50 ([2]; Table 3B, P. aeruginosa): >250 µg/mL
O=[N+]([O-])c1cccc(CN2CCNCC2)c1 [Compound 83] | yes, bind paHO | NMR pa-HO [1]: +; minimum inhibition conc [2]: no antibacterial activity; MIC 50 (ug/ml) ([2]; Table 3A): no antibact activity
Cc1ccc(CN2CCN(Cc3ccccc3)CC2)cc1 [Compound 80] | Alias: CB-10 fluorescence binding: nd minimum inhibition conc: nd NMR sat. transfer: binds paHO | –
CC(N)c1ccc2ccccc2c1 (stereo not shown) [Compound 103] | yes, bind paHO | NMR pa-HO [1]: +; MIC ([2]; Pseudomonas aeruginosa): > 250 µg/mL; MIC50 [2, 5]: > 250 µg/mL; MIC50 ([2]; Table 3B, P. aeruginosa): >250 µg/mL
O=C(N/N=C/c1ccc(O)cc1O)c1cccnc1 [Compound 11] | Alias: CD-20 fluorescence binding: nd minimum inhibition conc: nd NMR sat. transfer: do not bind paHO | –
C=CCNC(=O)C(=O)Nc1ccc(C(C)C)cc1 [Compound 124] | Alias: CB-30 fluorescence binding: nd minimum inhibition conc: nd NMR sat. transfer: tested, ambiguous | –
O=C(Oc1ccc(OC(=O)c2ccco2)cc1)c1ccco1 [Compound 47] | Alias: CB-3 fluorescence binding: nd minimum inhibition conc: nd NMR sat. transfer: do not bind paHO | –
O=C(O)Cn1c(=O)c2cc3c(=O)n(CC(=O)O)c(=O)c3cc2c1=O [Compound 4] | Alias: CB-2 fluorescence binding: nd minimum binding conc: nd NMR sat. transfer: do not bind paHO | –
NC(=O)NC(=O)C[n+]1ccc(C(N)=O)cc1 [Compound 34] | Alias: CD-3 fluorescence binding: nd minimum inhibition conc: nd NMR sat. transfer: do not bind paHO | –
Cc1ccc(NC(=O)c2cnccn2)cc1Cl [Compound 38] | Alias: CB-24 fluorescence binding: nd minimum inhibition conc: nd NMR sat. transfer: does not bind paHO | –
Cc1cccc(NC(=O)c2ccc(C(=O)Nc3cccc(C)n3)cc2)n1 [Compound 39] | Alias: CB-20 fluorescence binding: nd minimum inhibition conc: nd NMR sat. transfer: tested, ambiguous | –
CC(=O)Oc1ccc(-c2cccc(C(=O)O)c2)cc1 [Compound 61] | yes, bind to paHO | NMR pa-HO [1]: +; minimum inhibition conc [2]: no antibacterial activity; MIC 50 (ug/ml) ([2]; Table 3A): no antibact activity
O=C(CNC(=O)c1cccnc1)N/N=C/c1ccccn1 [Compound 9] | Alias: CD-21 fluorescence binding: nd minimum inhibition conc: nd NMR sat. transfer: do not bind paHO | –

SMILES | NMR sat. transfer [1] | further results
NCCNS(=O)(=O)c1cccc(C(=O)O)c1 [Compound 18] | Alias: Spec-7 fluorescence binding: nd minimum inhibition conc: nd NMR sat. transfer: do not bind paHO | –
O=C(CNc1ccc2ccccc2c1)N/N=C/c1ccccn1 [Compound 10] | Alias: CD-8 fluorescence binding: nd minimum inhibition conc: nd NMR sat. transfer: do not bind paHO | –
Oc1ccccc1/C=N/Nc1nnn[nH]1 [Compound 140] | Alias: CB-11 fluorescence binding: nd minimum inhibition conc: nd NMR sat. transfer: binds paHO | –
CCN1CCN(CCN)CC1 [Compound 90] | Alias: CD-19 fluorescence binding: nd minimum inhibition conc: nd NMR sat. transfer: do not bind paHO | –
N#Cc1ncc(-c2ccccc2)nc1C#N [Compound 120] | Alias: Spec-15 fluorescence binding: nd minimum inhibition conc: nd NMR sat. transfer: do not bind paHO | –
CN(C)CCN(C)Cc1cccc2ccccc12 [Compound 98] | Alias: CB-12 fluorescence binding: nd minimum inhibition conc: nd NMR sat. transfer: binds paHO | –
Cn1c(=O)c(CC(=O)C(=O)O)nc2ccccc21 [Compound 152] | yes, bind paHO | NMR pa-HO [1]: +; MIC50 [2, 4]: > 1000 µg/mL; minimum inhibition conc [2]: no antibacterial activity; MIC 50 (ug/ml) ([2]; Table 3A): no antibact activity
N#CCc1ccc(NC2=NS(=O)(=O)c3ccccc32)cc1 [Compound 56] | Alias: CD-16 fluorescence binding: nd minimum inhibition conc: nd NMR sat. transfer: do not bind paHO | –
O=C(O)CN1C(=O)c2ccccc2C1=O [Compound 5] | Alias: CB-4 fluorescence binding: nd minimum inhibition conc: nd NMR sat. transfer: binds paHO | –
NC(=O)c1ccc[n+](-c2ccccc2)c1 [Compound 91] | Alias: Spec-10 fluorescence binding: nd minimum inhibition conc: nd NMR sat. transfer: do not bind paHO | –
Cc1cc(C(=O)O)nn1-c1ccccc1 [Compound 115] | yes, bind paHO | NMR pa-HO [1]: +; MIC50 [2, 4]: > 1000 µg/mL; minimum inhibition conc [2]: no antibacterial activity; MIC 50 (ug/ml) ([2]; Table 3A): no antibact activity
O=C(O)CCn1ncc2ccccc21 [Compound 51] | Alias: CD-5 fluorescence binding: nd minimum inhibition conc: nd NMR sat. transfer: do not bind paHO | –
COc1cc(/C=N/Cc2ccco2)ccc1O [Compound 104] | Alias: CD-13 fluorescence binding: nd minimum inhibition conc: nd NMR sat. transfer: do not bind paHO | –
O=C(O)CSc1ncnc2ccccc12 [Compound 36] | binds paHO | NMR pa-HO [1]: +; minimum inhibition conc [2]: no antibacterial activity; MIC 50 (ug/ml) ([2]; Table 3A): no antibact activity
O=C(NCc1ccco1)c1cc(C(=O)NCc2ccco2)cc([N+](=O)[O-])c1 [Compound 40] | Alias: CB-25 fluorescence binding: nd minimum inhibition conc: nd NMR sat. transfer: does not bind paHO | –
Nc1nonc1-c1noc(-c2cccnc2O)n1 [Compound 113] | Alias: CD-17 fluorescence binding: nd minimum inhibition conc: nd NMR sat. transfer: do not bind paHO | –
Cc1n[nH]c(Nc2ccccc2F)c1[N+](=O)[O-] [Compound 20] | Alias: CD-6 fluorescence binding: nd minimum inhibition conc: nd NMR sat. transfer: do not bind paHO | –
O=C(O)CCC(=O)Nc1ccc(Oc2ccccc2)cc1 [Compound 48] | do not bind paHO | E. coli assay [3]: white pellet
NCC(=O)N(O)Cc1ccccc1 [Compound 127] | yes, bind paHO | NMR pa-HO [1]: +; MIC ([2]; Pseudomonas aeruginosa): > 1000 µg/mL; MIC50 [2, 5]: > 1000 µg/mL; MIC50 ([2]; Table 3B, P. aeruginosa): >1000 µg/mL
O=C(O)c1ccc2c(c1)C(=O)N(CCO)C2=O [Compound 151] | Alias: CB-8 fluorescence binding: nd minimum inhibition conc: nd NMR sat. transfer: binds paHO | –
O=C1OC(c2ccccc2)=N/C1=C\Nc1cccc([N+](=O)[O-])c1 [Compound 147] | Alias: CB-26 fluorescence binding: nd minimum inhibition conc: nd NMR sat. transfer: does not bind paHO | –
CC(C)c1ccc(CN2CCN(CCO)CC2)cc1 [Compound 132] | Alias: CB-13 fluorescence binding: nd minimum inhibition conc: nd NMR sat. transfer: tested, ambiguous | –
CN1CCN(CCCn2cnc3c2c(=O)n(C)c(=O)n3C)CC1 [Compound 145] | Alias: CB-14 fluorescence binding: nd minimum inhibition conc: nd NMR sat. transfer: tested, ambiguous | –
O=CNc1nonc1NNc1ccccc1 [Compound 144] | Alias: CB-15 fluorescence binding: nd minimum inhibition conc: nd NMR sat. transfer: tested, ambiguous | –
C(=N\Nc1nc(-c2cccnc2)cs1)/c1cccnc1 [Compound 3] | Alias: CB-28 fluorescence binding: nd minimum inhibition conc: nd NMR sat. transfer: does not bind paHO | –
